# Literature values in patent EP0557244B1, “Dosage forms having prolonged active-ingredient release” (Siegfried Pharma AG, priority 1992, dated 1993).
# Read-outs that look alike come from different tables or passages of the source.
# [1] = 20 mg of crystalline nifedipine, Pabst et al.
# [2] = 20 mg of dissolved nifedipine in capsules, Pabst et al.
structure (smiles),measurement,setting,value
COC(=O)C1=C(C)NC(C)=C(C(=O)OC)C1c1ccccc1[N+](=O)[O-] [nifedipine],plasma level peaks,[1],about 40 ng/ml
same,time of plasma level peaks,[1],about 1.5 hours
same,plasma level peaks,[2],about 200 ng/ml
same,time of plasma level peaks,[2],about 30 minutes
same,plasma level peaks,"tablet containing 40 mg of nifedipine (EP 220 760), initially",more than 60 ng/ml
